A short description of data set [1]: CellTox Green Cytotoxicity Assay in uninfected CRFK cells. In kind it is cell-based. As to conditions: cat (feline), 72 hour incubation. On the procedure: Compound 1 was screened for cytotoxicity in uninfected CRFK cells using a commercially available CellTox Green Cytotoxicity Assay (Promega). The assayed was performed in a 96 well place formate using serial dilution of Compound 1 in sextuplicate. Compound concentration associated with 50% cytotoxicity (CC50) following 72 hour incubation was calculated by regression analysis.

A further data set relates to feline coronavirus. Kind of data set: In vitro antiviral assay: virus-induced cytopathic effect in CRFK cells (crystal violet staining). Type of data set: cell-based. On the procedure:
Compound 1 was screened for activity against feline Coronaviruses in an in vitro assay. Serial dilutions of Compound 1 were mixed with 2.5×10^4 copies of feline coronavirus and added in sextuplicate to 96 well plates with pre-seeded CRFK cells. The plates were incubated for 72 hours followed by a staining of the cell culture monolayers with crystal violet. The level of virus-induced cytopathic effect was quantified visually and using a plate reader. Positive control wells comprised the virus without Compound 1. Negative control wells lacked both virus and Compound 1. The EC50 was calculated by regression analysis.
In general terms: Damage to the host cells serves as the signal in cytopathic effect assays.

Read-outs that look alike come from different tables or passages of the source.

The molecule `N#C[C@@]1(c2ccc3c(N)ncnn23)O[C@H](CO)[C@@H](O)[C@H]1O` [Compound 1, (2R,3R,4S,5R)-2-(4-aminopyrrolo[2,1-f][1,2,4]triazin-7-yl)-3,4-dihydroxy-5-(hydroxymethyl)tetrahydrofuran-2-carbonitrile] gave a CC50 at 72 h in data set [1] of over 100000 nM. The EC50 with feline coronavirus (Alphacoronavirus 1, CRFK, read-out: EC50 (FIG. 1 legend)) was determined as 750 nM; in the data set with feline coronavirus (Alphacoronavirus 1, feline coronavirus in CRFK cells, 72 hours incubation, regression analysis (Table 1), read-out: EC50), 770 nM. In the data set on feline coronavirus (CRFK cells, at 3, 2 and 1 μM, FIG. 1), the “inhibition of feline coronavirus” value is about 100%.

For orientation: CC50 means the concentration giving 50% cytotoxicity. A word on the EC50: it is the midpoint of the concentration-response curve.
